Assay results reported in ChEMBL document CHEMBL4837238, “Feature-Based Molecular Networking for the Targeted Identification of Gq-Inhibiting FR900359 Derivatives” (J Nat Prod, 2021).
Starred links: 1 amine or outer side, 2 acyl side, 3 side chain; linkers in the order of their positions; H or OH if unused. Positions of bridges follow the written chain, without caps; N, C: chain ends. Non-standard residues stand in square brackets, D forms with d. Residues, ends and D or L forms follow the SMILES beside them. *: point of attachment. Leu(3R-OH,Nα-propionyl) = CCC(=O)N[C@H](C(=O)*)[C@H](O)C(C)C; X1 = CC(C)[C@@H](O[*:3])[C@H](N[*:1])C(=O)[*:2]; NMeT = CN[C@H](C(=O)O)[C@@H](C)O; dPhLac = O=C(O)[C@H](O)Cc1ccccc1; NMeA = CN[C@@H](C)C(=O)O; NMeDha = C=C(NC)C(=O)O

Assays:
[1] = Displacement of [3H]-PSB15900 from human platelet membrane Gq incubated for 90 mins by scintillation counter method; assay type: cell membranes
[2] = target: T1, Guanine nucleotide-binding protein G(q) subunit alpha (Homo sapiens, UniProt P50148); test: Inhibition of wild type GNAQ (unknown origin) expressed in CRISPR/Cas9 engineered HEK293 cells; assay type: cell-based
T1 sequence (P50148 whole entry): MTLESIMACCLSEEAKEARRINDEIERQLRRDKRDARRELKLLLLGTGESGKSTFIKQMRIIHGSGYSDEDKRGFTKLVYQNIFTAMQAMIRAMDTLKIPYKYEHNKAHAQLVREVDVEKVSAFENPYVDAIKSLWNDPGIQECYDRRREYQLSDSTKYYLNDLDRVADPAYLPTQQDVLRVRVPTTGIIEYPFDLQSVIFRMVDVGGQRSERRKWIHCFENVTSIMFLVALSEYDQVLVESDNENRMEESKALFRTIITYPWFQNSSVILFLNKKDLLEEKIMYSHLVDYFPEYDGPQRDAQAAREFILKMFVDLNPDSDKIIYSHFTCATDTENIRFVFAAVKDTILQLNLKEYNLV

**Q.** With `C=C1C(=O)N[C@@H](C)C(=O)N(C)[C@@H](C)C(=O)N[C@@H]([C@H](OC(=O)[C@@H](NC(=O)CC)[C@H](O)C(C)C)C(C)C)C(=O)N(C)[C@@H]([C@@H](C)OC)C(=O)O[C@H](C(C)C)[C@H](NC(C)=O)C(=O)O[C@H](Cc2ccccc2)C(=O)N1C` (Ac-[X1][dPhLac][NMeDha]A[NMeA][X1](Leu(3R-OH,Nα-propionyl))[NMeT](Me); ester 1-C) as the compound, how does the pKi [1] read?
**A.** 8.66

**Q.** With `C=C1C(=O)N[C@@H](C)C(=O)N(C)[C@@H](C)C(=O)N[C@@H]([C@H](OC(=O)[C@@H](NC(C)=O)C(O)C(C)C)C(C)C)C(=O)N(C)/C(=C\C)C(=O)O[C@H](C(C)C)[C@H](NC(C)=O)C(=O)O[C@H](Cc2ccccc2)C(=O)N1C` (single isomer, unassigned) as the compound, how does the IC50 [2] read?
**A.** 2750 nM

**Q.** And the pKi [1]?
**A.** 7.5
